Legend:
Staphylococcus aureus = test: Antimicrobial screening, agar dilution method; assay type: cell-based; conditions: after 10, 20, 40 and 60 minutes at all dilutions 1:100, 1:200, 1:400, 1:800
Description: (§1) The antibacterial properties of the synthesized compound 2-benzo-[3,4-b]pyridine-[b,g]indeno[1′,2′:3,4]fluoreno-[1,2-d]oxonine-5,11,16,21-tetraone were studied by the method of agar dilution. Test solutions of each compound was prepared in concentration of 1% using dimethylformamide as a solvent then they are diluted in physiological solution to obtain the final experimental dilutions 1:100, 1:200, 1:400, 1:800. The effect of these substances are compared with furacillin in a controllable study. The testing microbes used were gram positive bacteria Staphylococcus aureus, gram negative bacteria Pseudomonas aeruginosa and Escherichia coli and Candida albicans fungus. The experiments used for this survey were meat-pentonlu agar (EPA) for cultivation of bacteria and Saburo environment for the fungus. Each experiment used 1 mL of test solution on each plate […]. Two drops of emulsified with microbes feel were added. All experimental samples were taken from the agar after 10, 20, 40, 60 minutes in the environment on the basis of Patrk planted. The bacteria were cultivated at a temperature of 37° C. for 1 day and the mushroom was kept in a thermostat for 2 hours at a temperature of 28° C. Then results were checked.

Candida albicans = test: Antimicrobial screening, agar dilution method; assay type: cell-based; conditions: after 10, 20, 40 and 60 minutes at all dilutions 1:100, 1:200, 1:400, 1:800
Description: as §1

Pseudomonas aeruginosa = test: Antimicrobial screening, agar dilution method; assay type: cell-based; conditions: after 10, 20, 40 and 60 minutes at all dilutions 1:100, 1:200, 1:400, 1:800
Description: as §1

Escherichia coli = test: Antimicrobial screening, agar dilution method; assay type: cell-based; conditions: after 10, 20, 40 and 60 minutes at all dilutions 1:100, 1:200, 1:400, 1:800
Description: as §1

O=C1Oc2ncccc2-c2c(c3c4ccccc4c(=O)c3c3c2c(=O)c2ccccc23)C(=O)c2ccccc21 [2-benzo-[3,4-b]pyridine-[b,g]indeno[1′,2′:3,4]fluoreno-[1,2-d]oxonine-5,11,16,21-tetraone]
inhibition activity (Staphylococcus aureus): highest inhibition activity | inhibition activity (Candida albicans): highest inhibition activity | inhibition activity (Pseudomonas aeruginosa): highest inhibition activity | inhibition activity (Escherichia coli): highest inhibition activity | melting point: 270 to 271 °C
